Results reported in ChEMBL document CHEMBL4118122, “Identification and biological evaluation of thiazole-based inverse agonists of RORγt” (Bioorg Med Chem Lett, 2018).
Values after ≈ are worked out from the molar mass of the structure shown.

Legend:
[1] = Initial plasma concentration in Sprague-Dawley rat at 1 mg/kg, iv; type: ADME, organism-based
PXR (NR1I2) [2] = biological target: T1, PXR (NR1I2) (Homo sapiens, UniProt O75469); test: […] at PXR LBD (unknown origin) expressed in HEK293 cells […] at 10 uM after 16 hrs by luciferase reporter gene assay relative to rifampicin; type: ADME, cell-based; details: HEK293 cells expressing PXR LBD, read-out: Efficacy
T1 sequence (O75469 whole entry): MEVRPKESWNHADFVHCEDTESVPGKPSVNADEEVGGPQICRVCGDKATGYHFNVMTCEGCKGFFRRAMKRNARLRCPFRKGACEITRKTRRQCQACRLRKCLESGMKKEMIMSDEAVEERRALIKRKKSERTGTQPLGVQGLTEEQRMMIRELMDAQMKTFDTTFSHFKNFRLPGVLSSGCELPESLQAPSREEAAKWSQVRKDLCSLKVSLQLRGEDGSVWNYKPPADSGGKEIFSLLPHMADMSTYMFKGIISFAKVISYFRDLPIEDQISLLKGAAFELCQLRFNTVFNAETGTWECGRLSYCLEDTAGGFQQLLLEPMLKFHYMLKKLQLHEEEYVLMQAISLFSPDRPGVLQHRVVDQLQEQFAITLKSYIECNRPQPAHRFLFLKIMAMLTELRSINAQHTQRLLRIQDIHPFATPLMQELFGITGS

[3] = Terminal half life in Sprague-Dawley rat at 5 mg/kg, po; type: ADME, organism-based; details: in vivo, read-out: beta t1/2 (converted)
[4] = Thermodynamic solubility of the compound in 30 mM phosphate buffer at 10 mM at pH 7 after 2 to 5 days by UV-HPLC analysis; type: physicochemical; details: read-out: Therm_solubility
[5] = Half life in human microsomes; type: ADME, Microsome
[6] = Tmax in Sprague-Dawley rat at 5 mg/kg, po; type: ADME, organism-based; details: in vivo
Cytochrome P450 2C8 = biological target: T2, Cytochrome P450 2C8 (Homo sapiens, UniProt P10632); test: Inhibition of CYP2C8 (unknown origin); type: ADME
T2 sequence (P10632 whole entry): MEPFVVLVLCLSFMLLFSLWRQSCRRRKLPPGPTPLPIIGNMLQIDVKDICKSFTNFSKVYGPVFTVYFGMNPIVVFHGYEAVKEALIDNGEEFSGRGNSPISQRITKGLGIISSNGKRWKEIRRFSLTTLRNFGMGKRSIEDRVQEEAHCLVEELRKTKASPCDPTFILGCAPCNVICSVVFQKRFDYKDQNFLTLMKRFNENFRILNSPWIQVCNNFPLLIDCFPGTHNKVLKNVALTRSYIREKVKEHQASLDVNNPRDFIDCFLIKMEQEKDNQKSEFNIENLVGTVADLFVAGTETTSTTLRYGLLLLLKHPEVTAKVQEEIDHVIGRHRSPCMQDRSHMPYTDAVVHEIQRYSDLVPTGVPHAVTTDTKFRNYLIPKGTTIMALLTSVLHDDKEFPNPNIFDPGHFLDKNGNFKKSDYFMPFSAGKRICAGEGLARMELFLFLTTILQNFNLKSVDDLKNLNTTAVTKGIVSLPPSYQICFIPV

Cytochrome P450 2C9 = Cytochrome P450 2C9 (Homo sapiens, UniProt P11712); test: Inhibition of CYP2C9 (unknown origin); type: ADME
[7] = Cmax in Sprague-Dawley rat at 5 mg/kg, po; type: ADME, organism-based; set-up: dose 5 mg/kg, route oral; details: in vivo
[8] = Half life in Sprague-Dawley rat at 1 mg/kg, iv; type: ADME, organism-based; details: in vivo
PXR (NR1I2) [9] = biological target: T1, PXR (NR1I2); test: […] at PXR LBD (unknown origin) expressed in HEK293 cells […] at 1 uM after 16 hrs by luciferase reporter gene assay relative to rifampicin; type: ADME, cell-based; details: HEK293 cells expressing PXR LBD, read-out: Efficacy
Cytochrome P450 1A2 = biological target: T3, Cytochrome P450 1A2 (Homo sapiens, UniProt P05177); test: Inhibition of CYP1A2 (unknown origin); type: ADME
T3 sequence (P05177 whole entry): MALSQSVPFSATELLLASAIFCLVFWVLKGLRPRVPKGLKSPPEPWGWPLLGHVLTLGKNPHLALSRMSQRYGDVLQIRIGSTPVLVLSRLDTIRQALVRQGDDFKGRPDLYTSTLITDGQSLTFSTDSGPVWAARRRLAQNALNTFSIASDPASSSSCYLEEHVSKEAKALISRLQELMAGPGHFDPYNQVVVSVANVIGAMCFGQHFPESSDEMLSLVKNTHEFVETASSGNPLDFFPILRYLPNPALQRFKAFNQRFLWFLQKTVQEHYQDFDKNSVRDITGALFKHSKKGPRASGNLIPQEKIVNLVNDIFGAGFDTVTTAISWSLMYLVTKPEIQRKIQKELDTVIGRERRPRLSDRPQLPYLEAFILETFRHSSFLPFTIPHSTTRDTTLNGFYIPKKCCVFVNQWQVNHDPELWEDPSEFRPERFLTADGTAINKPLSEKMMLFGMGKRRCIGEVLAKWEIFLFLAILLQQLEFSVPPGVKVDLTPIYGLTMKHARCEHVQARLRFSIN

[10] = AUC (0 to infinity) in Sprague-Dawley rat at 5 mg/kg, po; type: ADME, organism-based; set-up: dose 5 mg/kg, route oral, time infinity; details: in vivo
[11] = Volume of distribution at steady state in Sprague-Dawley rat at 1 mg/kg, iv; type: ADME, organism-based; details: in vivo, read-out: Vdss
Cytochrome P450 2D6 = Cytochrome P450 2D6 (Homo sapiens, UniProt P10635); test: Inhibition of CYP2D6 (unknown origin); type: ADME
Cytochrome P450 3A4 = Cytochrome P450 3A4 (Homo sapiens, UniProt P08684); test: Inhibition of CYP3A4 (unknown origin); type: ADME
[12] = Half life in rat microsomes; type: ADME, Microsome
[13] = AUC (0 to infinity) in Sprague-Dawley rat at 1 mg/kg, iv; type: ADME, organism-based; set-up: dose 1 mg/kg, time infinity, route intravenous; details: in vivo
Cytochrome P450 2C19 = Cytochrome P450 2C19 (Homo sapiens, UniProt P33261); test: Inhibition of CYP2C19 (unknown origin); type: ADME
[14] = biological target: T4, Nuclear receptor ROR-beta (Homo sapiens, UniProt Q92753); test: Binding affinity to recombinant human RORbeta LBD (201 to 452 residues) expressed in Escherichia coli BL21 (DE3) GOLD by 1,8-ANS dye-based thermofluor assay
T4 sequence (Q92753 whole entry): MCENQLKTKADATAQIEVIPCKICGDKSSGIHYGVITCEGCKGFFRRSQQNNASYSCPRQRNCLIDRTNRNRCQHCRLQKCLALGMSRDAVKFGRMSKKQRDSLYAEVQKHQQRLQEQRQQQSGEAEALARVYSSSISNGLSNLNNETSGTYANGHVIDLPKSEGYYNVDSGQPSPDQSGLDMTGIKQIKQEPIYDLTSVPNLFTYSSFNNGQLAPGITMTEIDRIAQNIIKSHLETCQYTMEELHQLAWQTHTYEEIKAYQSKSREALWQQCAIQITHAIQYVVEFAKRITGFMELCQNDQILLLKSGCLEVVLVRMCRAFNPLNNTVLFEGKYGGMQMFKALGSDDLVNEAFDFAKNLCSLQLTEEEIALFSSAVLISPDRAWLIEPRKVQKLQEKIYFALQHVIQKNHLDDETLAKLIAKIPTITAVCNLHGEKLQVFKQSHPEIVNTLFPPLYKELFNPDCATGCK

[15] = Clearance in Sprague-Dawley rat at 1 mg/kg, iv; type: ADME, organism-based; details: in vivo
[16] = Oral bioavailability in Sprague-Dawley rat at 5 mg/kg; type: ADME, organism-based; details: in vivo
PXR (NR1I2) [17] = biological target: T1, PXR (NR1I2); test: […] at PXR LBD (unknown origin) expressed in HEK293 cells […] at 5 uM after 16 hrs by luciferase reporter gene assay relative to rifampicin; type: ADME, cell-based; details: HEK293 cells expressing PXR LBD, read-out: Efficacy
[18] = Half life in Sprague-Dawley rat at 0.5 mg/kg, iv; type: ADME, organism-based; details: in vivo
[19] = Tmax in Sprague-Dawley rat at 2.5 mg/kg, po; type: ADME, organism-based; details: in vivo
[20] = Volume of distribution at steady state in Sprague-Dawley rat at 0.5 mg/kg, iv; type: ADME, organism-based; details: in vivo, read-out: Vdss
[21] = Thermodynamic solubility of the compound in fasted state simulated intestinal […] after 2 to 5 days by UV-HPLC analysis; type: physicochemical; details: read-out: Therm_solubility
[22] = Oral bioavailability in Sprague-Dawley rat at 2.5 mg/kg; type: ADME, organism-based; details: in vivo
[23] = AUC (0 to infinity) in Sprague-Dawley rat at 2.5 mg/kg, po; type: ADME, organism-based; set-up: dose 2.5 mg/kg, time infinity, route oral; details: in vivo
[24] = Cmax in Sprague-Dawley rat at 2.5 mg/kg, po; type: ADME, organism-based; set-up: dose 2.5 mg/kg, route oral; details: in vivo
[25] = AUC (0 to infinity) in Sprague-Dawley rat at 0.5 mg/kg, iv; type: ADME, organism-based; set-up: dose 0.5 mg/kg, route intravenous, time infinity; details: Sprague-Dawley, in vivo
[26] = Initial plasma concentration in Sprague-Dawley rat at 0.5 mg/kg, iv; type: ADME, organism-based
[27] = Terminal half life in Sprague-Dawley rat at 2.5 mg/kg, po; type: ADME, organism-based; details: in vivo, read-out: beta t1/2 (converted)
[28] = Clearance in Sprague-Dawley rat at 0.5 mg/kg, iv; type: ADME, organism-based; details: in vivo

Chain of Cytochrome P450 2C19 (P33261 whole entry, the tested form may be a part): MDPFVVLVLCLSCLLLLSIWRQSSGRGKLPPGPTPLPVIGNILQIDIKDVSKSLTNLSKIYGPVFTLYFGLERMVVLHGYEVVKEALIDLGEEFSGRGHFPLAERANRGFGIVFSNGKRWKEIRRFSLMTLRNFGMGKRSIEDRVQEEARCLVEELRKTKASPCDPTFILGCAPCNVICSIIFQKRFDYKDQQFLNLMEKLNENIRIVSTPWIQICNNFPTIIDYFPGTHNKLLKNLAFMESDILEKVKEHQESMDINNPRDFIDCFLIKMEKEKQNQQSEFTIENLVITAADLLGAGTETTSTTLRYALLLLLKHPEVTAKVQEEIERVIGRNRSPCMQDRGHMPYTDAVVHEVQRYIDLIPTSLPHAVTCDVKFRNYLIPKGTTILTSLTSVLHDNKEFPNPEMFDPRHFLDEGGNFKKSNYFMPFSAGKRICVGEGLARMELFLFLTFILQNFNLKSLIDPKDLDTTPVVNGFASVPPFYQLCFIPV
Chain of Cytochrome P450 2D6 (P10635 whole entry): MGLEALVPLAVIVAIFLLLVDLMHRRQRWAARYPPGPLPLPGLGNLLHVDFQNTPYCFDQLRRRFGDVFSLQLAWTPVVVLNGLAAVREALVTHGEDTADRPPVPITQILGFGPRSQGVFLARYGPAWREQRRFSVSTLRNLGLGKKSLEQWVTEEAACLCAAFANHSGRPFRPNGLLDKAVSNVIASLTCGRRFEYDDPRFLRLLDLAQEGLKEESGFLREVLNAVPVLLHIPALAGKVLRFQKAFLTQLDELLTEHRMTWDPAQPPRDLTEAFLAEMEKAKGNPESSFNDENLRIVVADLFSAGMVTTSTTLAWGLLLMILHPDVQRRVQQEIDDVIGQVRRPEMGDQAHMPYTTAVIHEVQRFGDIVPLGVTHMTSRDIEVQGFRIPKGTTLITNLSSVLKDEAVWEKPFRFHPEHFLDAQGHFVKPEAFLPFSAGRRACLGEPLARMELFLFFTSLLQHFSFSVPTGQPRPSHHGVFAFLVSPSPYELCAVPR
Chain of Cytochrome P450 2C9 (P11712 whole entry): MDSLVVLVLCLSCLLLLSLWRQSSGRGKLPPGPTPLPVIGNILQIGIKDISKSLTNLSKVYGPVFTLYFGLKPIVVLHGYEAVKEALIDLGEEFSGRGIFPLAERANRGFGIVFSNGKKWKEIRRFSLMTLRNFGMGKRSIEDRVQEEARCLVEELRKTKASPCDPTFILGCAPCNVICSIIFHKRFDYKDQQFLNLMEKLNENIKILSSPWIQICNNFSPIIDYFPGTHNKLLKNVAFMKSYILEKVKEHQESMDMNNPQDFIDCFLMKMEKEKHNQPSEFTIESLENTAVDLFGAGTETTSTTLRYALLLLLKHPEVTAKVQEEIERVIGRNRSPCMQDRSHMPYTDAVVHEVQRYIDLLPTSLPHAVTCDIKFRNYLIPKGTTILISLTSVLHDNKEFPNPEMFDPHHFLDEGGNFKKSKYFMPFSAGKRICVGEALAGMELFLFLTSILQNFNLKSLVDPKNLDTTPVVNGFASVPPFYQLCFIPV
Chain of Cytochrome P450 3A4 (P08684 whole entry): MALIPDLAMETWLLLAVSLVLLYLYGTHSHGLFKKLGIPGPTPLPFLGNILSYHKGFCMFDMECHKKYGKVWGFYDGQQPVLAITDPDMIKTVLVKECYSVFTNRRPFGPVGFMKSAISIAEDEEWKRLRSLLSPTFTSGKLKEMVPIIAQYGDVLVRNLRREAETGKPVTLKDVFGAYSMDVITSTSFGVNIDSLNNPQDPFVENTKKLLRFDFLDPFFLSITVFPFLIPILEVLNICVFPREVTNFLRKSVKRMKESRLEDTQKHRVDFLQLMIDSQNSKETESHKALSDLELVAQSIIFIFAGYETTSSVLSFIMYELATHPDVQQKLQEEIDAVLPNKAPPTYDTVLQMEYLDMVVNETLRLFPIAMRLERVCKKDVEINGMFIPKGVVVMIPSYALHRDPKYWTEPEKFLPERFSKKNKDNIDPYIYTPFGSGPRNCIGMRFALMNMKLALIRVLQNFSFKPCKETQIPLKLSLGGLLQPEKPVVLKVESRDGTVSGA

Compound | C0 [1] | Emax at 16 h, 10 µM (PXR (NR1I2) [2]) | half-life [3] | solubility thermodynamic at 10000 µM [4] | half-life [5] | Tmax [6] | INH (Cytochrome P450 2C8) | INH (Cytochrome P450 2C9) | Cmax [7] | half-life [8] | Emax at 16 h, 1 µM (PXR (NR1I2) [9]) | INH (Cytochrome P450 1A2) | AUC(0-inf) [10] | Vd [11] | INH (Cytochrome P450 2D6) | INH (Cytochrome P450 3A4) | half-life [12] | AUC(0-inf) [13] | INH (Cytochrome P450 2C19) | Kd [14] | other results
CC(C)(C)NS(=O)(=O)c1ccc(-c2sc(C(=O)N[C@H]3C[C@H](C(=O)O)C3)nc2CC2CCCCC2)c(Cl)c1 | 2300 ng/mL | 178% | 126 min | 6.6 µM (≈ 3.75 µg/mL) | 101 min | 0.8 h | 3.5 µM | > 10 µM | 130 ng/mL | 30 min | 101% | > 10 µM | 328 ng·h/mL | 2.3 L/kg | > 10 µM | > 10 µM | 73 min | 162 ng·h/mL | > 10 µM | > 75 µM | clearance [15]: 107 mL/min/kg; bioavailability [16]: 20%
C[C@H](NS(=O)(=O)c1ccc(-c2sc(C(=O)NCC(C)(C)O)nc2CC2CCC2)c(C(F)F)c1)C(F)(F)F | 310 ng/mL | – | 192 min | < 4 µM | > 180 min | 1.7 h | > 10 µM | 2.7 µM | 57 ng/mL | 114 min | 74% | > 10 µM | 321 ng·h/mL | 5.4 L/kg | 5.4 µM | > 10 µM | 57 min | 198 ng·h/mL | 3 µM | > 72 µM | Emax at 16 h, 5 µM (PXR (NR1I2) [17]): 144%; clearance [15]: 46.7 mL/min/kg; bioavailability [16]: 32.5%
CC(C)(C)NS(=O)(=O)c1ccc(-c2sc(C(=O)N3CC4(C3)CS(=O)(=O)C4)nc2CC2CCCCC2)c(Cl)c1Cl | – | 160% | – | < 1 µM | 18 min | – | > 10 µM | 1.6 µM | – | – | 139% | > 10 µM | – | – | > 10 µM | > 10 µM | 55 min | – | > 10 µM | – | half-life [18]: 90 min; Tmax [19]: 60 min; Vd [20]: 4.8 L/kg; solubility thermodynamic [21]: < 4 µM; bioavailability [22]: 87.7%; AUC(0-inf) [23]: 1580 ng·h/mL; Cmax [24]: 269 ng/mL; AUC(0-inf) [25]: 360 ng·h/mL; C0 [26]: 518 ng/mL; half-life [27]: 180 min; clearance [28]: 42.5 mL/min/kg
CCC(C)(C)NS(=O)(=O)c1ccc(-c2sc(C(=O)N[C@H]3C[C@H](C(=O)O)C3)nc2CC2CCCCC2)c(Cl)c1C | – | 34% | – | < 1 µM | 27 min | – | 1.8 µM | 3.2 µM | – | – | 21% | > 10 µM | – | – | > 10 µM | > 10 µM | 44 min | – | > 10 µM | – | half-life [18]: 24 min; Tmax [19]: 48 min; Vd [20]: 2.1 L/kg; solubility thermodynamic [21]: 59 µM (≈ 35.2 µg/mL); bioavailability [22]: 18%; AUC(0-inf) [23]: 142 ng·h/mL; Cmax [24]: 52 ng/mL; AUC(0-inf) [25]: 170 ng·h/mL; C0 [26]: 1410 ng/mL; half-life [27]: 186 min; clearance [28]: 98.8 mL/min/kg
C[C@H](NS(=O)(=O)c1ccc(-c2sc(C(=O)NC3CCS(=O)(=O)CC3)nc2CC2CC2)c2ccccc12)C(F)(F)F | 470 ng/mL | – | 156 min | < 4 µM | 100 min | 1.7 h | > 10 µM | 2.9 µM | 276 ng/mL | 228 min | 99% | > 10 µM | 1700 ng·h/mL | 3.4 L/kg | > 10 µM | > 10 µM | 141 min | 792 ng·h/mL | > 10 µM | > 69 µM | Emax at 16 h, 5 µM (PXR (NR1I2) [17]): 131%; clearance [15]: 21.6 mL/min/kg; bioavailability [16]: 42.5%
